Values belong to the molecule of their own block, whether it stands above or below them.
How the values were obtained:
[1] = tested on: normal C57BL/6 mice; experiment: toxicity study in normal C57BL/6 mice; assay type: in vivo; details: 50 and 100 mg/kg body, oral gavage daily for 7 days; for morphology (kidney, liver, lung): H&E
Procedure: We tested whether the synthesized conjugates are free of toxicity and safer to use in human normal cells and animal models. We treated human normal immortalized cell line (MCF10A) and normal C57BL/6 mice at different concentrations and time points.
Administration of CMC compounds to the mice: For toxicity studies, CMC1 and CMC2 conjugates at two different concentrations (50 and 100 mg/kg body) were given oral gavage daily for 7 days. At the end of the experiment, animals were euthanized, kidneys, liver, and lungs were analyzed for morphological changes. We also collected blood samples to measure Creatinine using a Creatinine assay kit (obtained from Millipore Sigma, Burlington, MA, USA, Catalog # MAK080), Alanine aminotransferase (ALT), using an ALT assay kit (obtained from the Millipore Sigma, Catalog #MAK053), Aspartate aminotransferase (AST), using an AST assay kit obtained from Millipore Sigma, Catalog #MAK055), and blood urea and nitrogen (BUN), using a urea nitrogen assay kit (obtained from ThermoFisher Scientific, Waltham, MA, USA, Catalog #EIABUN) as per the manufacturer’s instruction.

[2] = tested on: MB231 cells; experiment: clonogenic survival / colony formation assay, MB231; assay type: cell-based, human; details: for EC50: Homo sapiens, clonogenic survival assay, TNBC cell line; for colony formation: MB231, 0, 1, 5, and 10 μM, 2 weeks
Procedure: (§1) MCF10A, T47D, and MB231 cells (5 × 10^3) were seeded in 24-well plates, and cells were exposed to different CMC conjugates at different concentrations (0, 1, 5, and 10 μM) for 2 weeks, changing the medium for every 3 days with respective CMC conjugates at the indicated concentrations. After 2 weeks, cells were washed with PBS and fixed in 100% methanol for 30 min followed by staining with KaryoMax Giemsa stain for 1 h. The unfound dyes were removed by washing the wells with water and dried overnight at room temperature. Finally, cells were lysed with lysis buffer (1% SDS in 0.2 N NaOH) for 5 min, and the absorbance of the released dye was measured at 630 nm, as described before. Values are shown as mean ± SD of three experiments with 3 wells in each, for a total of 9 repeats.

[3] = tested on: T47D cells; experiment: clonogenic survival / colony formation assay, T47D; assay type: cell-based, human; details: for EC50: Homo sapiens, T47D, clonogenic survival assay, ER+ BC cell line; for colony formation: T47D, 0, 1, 5, and 10 μM, 2 weeks
Procedure: as §1

[4] = tested on: MCF10A cells; experiment: clonogenic survival / colony formation assay, MCF10A; assay type: cell-based, human; details: for EC50: MCF-10A, clonogenic survival assay, human normal immortalized mammary epithelial cell line; for colony formation: MCF10A, 0, 1, 5, and 10 μM, 2 weeks
Procedure: as §1

[5] = tested on: MMTV–PyMT–Tg mice; experiment: spontaneous mouse mammary tumor model; assay type: in vivo; details: 10 mg/kg body, three times a week by oral gavage for 7 weeks
Procedure: We chose MMTV–PyMT–Tg mouse mainly because the tumor formation and progression in this mouse is characterized by four different stages (hyperplasia, adenoma/mammary intra-epithelial neoplasia, early and late carcinoma) and also mimics human BC; the tumor develops first as ER-positive (ER^+) but ultimately becomes ER-negative BC (ER^− BC). We randomly assigned 6-week-old MMTV–PyMT–Tg mice into two groups (6 mice in each); one control and one CMC2 treated (10 mg/kg body, three times a week by oral gavage for 7 weeks). We measured the tumor volume twice a week. Tumor volume was calculated using the formula V = L × W^2/2, where L represents the largest tumor diameter, and W represents the smallest tumor diameter. Mice were euthanized after seven weeks of treatment, and tumor tissues were collected. The total tumor weight was measured. Tumor tissue sections were prepared and stained with Hematoxylin and Eosin (H&E) for morphometric analysis and Ki67 for cell proliferation analysis.
Similarly, six-week-old MMTV–PyMT–Tg mice were grouped into two groups—one control and one CMC2 treatment. The control mice received PBS, and the CMC2-treated group received CMC2 conjugate (10 mg/kg body by oral gavage, three times a week) for 7 weeks. We monitored animal weight and measured the tumor volume twice a week. At the end of the experimental period, mice were euthanized, and tumor tissues were harvested and measured for tumor weight. Tumor tissues were processed to extract RNA and protein and fixed in 10% buffered formalin phosphate solution (obtained from Fisher Scientific, Catalog #SF100-4) for morphological analysis.

[6] = tested on: MCF10A cells; experiment: MTT cell proliferation assay, MCF10A; assay type: cell-based, human; details: MCF10A, 0, 1, 5, and 10 μM, 72 h
Procedure: (§2) MCF10A, T47D, and MB231 cells (5 × 10^3) were seeded in 96-well plates and incubator at 37 °C with 5% CO2 in MEGM, DMEM, and RPMI medium (100 μL), respectively. After 24 h, the medium was replaced with the CMC conjugates at different concentrations (0, 1, 5, and 10 μM) for 72 h. After 72 h, 10 μL MTT reagent was added to each well and incubated for 2 h for the formation of purple formazan and then added 100 μL detergent to dissociate the formazan precipitate and measured at 570 nm. Values are shown as mean ± SD of three experiments with 3 wells in each, a total of 9 repeats.

[7] = tested on: T47D cells; experiment: MTT cell proliferation assay, T47D; assay type: cell-based, human; details: T47D, 0, 1, 5, and 10 μM, 72 h
Procedure: as §2

[8] = tested on: MB231 cells; experiment: MTT cell proliferation assay, MB231; assay type: cell-based, human; details: MB231, 0, 1, 5, and 10 μM, 72 h
Procedure: as §2

Structure (SMILES): COc1cc(/C=C/C(=O)/C=C(O)/C=C/c2ccc(OC(=O)C(Cl)Cl)c(OC)c2)ccc1OC(=O)C(Cl)Cl [CMC1, ((1E,3Z,6E)-3-Hydroxy-5-oxohepta-1,3,6-triene-1,7-diyl)bis(2-methoxy-4,1-phenylene) bis(2,2-dichloroacetate)]
body weight [1]: no changes
kidney functions (serum creatinine and blood urea and nitrogen) [1]: no changes
liver functions (ALT and AST) [1]: no changes
morphology (kidney, liver, lung) [1]: no changes
EC50 [2]: 424 nM
EC50 [3]: 1650 nM
EC50 [4]: 8980 nM

Structure (SMILES): COc1cc(/C=C/C(=O)/C=C(O)/C=C/c2ccc(OC(=O)CNC(=O)C(Cl)Cl)c(OC)c2)ccc1OC(=O)CNC(=O)C(Cl)Cl [CMC2, ((1E,3Z,6E)-3-Hydroxy-5-oxohepta-1,3,6-triene-1,7-diyl)bis(2-methoxy-4,1-phenylene) bis(2-(2,2-dichloroacetamido)acetate)]
body weight [1]: no changes
kidney functions (serum creatinine and blood urea and nitrogen) [1]: no changes
liver functions (ALT and AST) [1]: no changes
morphology (kidney, liver, lung) [1]: no changes
lung nodules [5]: reducing
normal body weight and organ histology [5]: without affecting
overall survival rate [5]: increased
tumor cell proliferation (Ki67) in mammary and lung tumor tissue [5]: inhibiting
tumor growth [5]: significantly reduced
EC50 [2]: 778 nM
EC50 [3]: 1420 nM
EC50 [4]: 9680 nM

Structure (SMILES): COc1cc(/C=C/C(=O)/C=C(O)/C=C/c2ccc(OC(=O)[C@H](C)NC(=O)C(Cl)Cl)c(OC)c2)ccc1OC(=O)[C@H](C)NC(=O)C(Cl)Cl [CMC3, ((1E,3Z,6E)-3-Hydroxy-5-oxohepta-1,3,6-triene-1,7-diyl)bis(2-methoxy-4,1-phenylene) (2S,2’S)-bis(2-(2,2-dichloroacetamido)propanoate)]
EC50 [2]: 518 nM
EC50 [3]: 1600 nM
EC50 [4]: 9710 nM

melting point: 140 to 142 °C
Structure (SMILES): COc1cc(/C=C/C(=O)/C=C(O)/C=C/c2ccc(OC(=O)CCNC(=O)C(Cl)Cl)c(OC)c2)ccc1OC(=O)CCNC(=O)C(Cl)Cl [CMC4, ((1E,3Z,6E)-3-Hydroxy-5-oxohepta-1,3,6-triene-1,7-diyl)bis(2-methoxy-4,1-phenylene) bis(3-(2,2-dichloroacetamido)propanoate)]
EC50 [2]: 1130 nM
EC50 [3]: 1260 nM
EC50 [4]: 8860 nM

Structure (SMILES): COc1cc(/C=C/C(=O)/C=C(O)/C=C/c2ccc(OC(=O)[C@H](Cc3ccccc3)NC(=O)C(Cl)Cl)c(OC)c2)ccc1OC(=O)[C@H](Cc1ccccc1)NC(=O)C(Cl)Cl [CMC5, ((1E,3Z,6E)-3-Hydroxy-5-oxohepta-1,3,6-triene-1,7-diyl)bis(2-methoxy-4,1-phenylene) (2S,2’S)-bis(2-(2,2-dichloroacetamido)-3-phenylpropanoate)]
EC50 [2]: 838 nM
EC50 [3]: 1240 nM
EC50 [4]: 9600 nM

melting point: 130 to 132 °C
Structure (SMILES): COc1cc(/C=C/C(=O)/C=C(O)/C=C/c2ccc(OC(=O)CCCNC(=O)C(Cl)Cl)c(OC)c2)ccc1OC(=O)CCCNC(=O)C(Cl)Cl [CMC6, ((1E,3Z,6E)-3-Hydroxy-5-oxohepta-1,3,6-triene-1,7-diyl)bis(2-methoxy-4,1-phenylene) bis(4-(2,2-dichloroacetamido)butanoate)]
EC50 [2]: 942 nM
EC50 [3]: 1370 nM
EC50 [4]: 9470 nM

Structure (SMILES): COc1cc(/C=C/C(=O)CC(=O)/C=C/c2ccc(O)c(OC)c2)ccc1O [CUR, Curcumin, reference compound]
cell viability / proliferation (MTT) [6]: not
cell viability / proliferation (MTT) [7]: inhibited
colony formation [2]: inhibited
cell viability / proliferation (MTT) [8]: inhibited
colony formation [3]: inhibited
colony formation [4]: not

Structure (SMILES): O=C(O)C(Cl)Cl [DCA, Dichloroacetate, reference compound]
cell viability / proliferation (MTT) [6]: not
cell viability / proliferation (MTT) [7]: inhibited
colony formation [2]: inhibited
cell viability / proliferation (MTT) [8]: inhibited
colony formation [3]: inhibited
colony formation [4]: not

Reference: publication PMC9028889 (Pharmaceuticals, 2022)
